As usually defined, the IC50 is the concentration that gives 50% inhibition.

This note sets out measurements from patent US9255100B2 (BAYER INTELLECTUAL PROPERTY GMBH, priority 2010, dated 2016).

This test concerns the target T1, N-terminally GST-tagged human full length recombinant Mps-1 kinase (Homo sapiens, UniProt P33981).
T1 construct: N-terminally GST-tagged human full length recombinant Mps-1 kinase; purchased Invitrogen, Karslruhe, Germany PV4071
T1 sequence (P33981 1-857): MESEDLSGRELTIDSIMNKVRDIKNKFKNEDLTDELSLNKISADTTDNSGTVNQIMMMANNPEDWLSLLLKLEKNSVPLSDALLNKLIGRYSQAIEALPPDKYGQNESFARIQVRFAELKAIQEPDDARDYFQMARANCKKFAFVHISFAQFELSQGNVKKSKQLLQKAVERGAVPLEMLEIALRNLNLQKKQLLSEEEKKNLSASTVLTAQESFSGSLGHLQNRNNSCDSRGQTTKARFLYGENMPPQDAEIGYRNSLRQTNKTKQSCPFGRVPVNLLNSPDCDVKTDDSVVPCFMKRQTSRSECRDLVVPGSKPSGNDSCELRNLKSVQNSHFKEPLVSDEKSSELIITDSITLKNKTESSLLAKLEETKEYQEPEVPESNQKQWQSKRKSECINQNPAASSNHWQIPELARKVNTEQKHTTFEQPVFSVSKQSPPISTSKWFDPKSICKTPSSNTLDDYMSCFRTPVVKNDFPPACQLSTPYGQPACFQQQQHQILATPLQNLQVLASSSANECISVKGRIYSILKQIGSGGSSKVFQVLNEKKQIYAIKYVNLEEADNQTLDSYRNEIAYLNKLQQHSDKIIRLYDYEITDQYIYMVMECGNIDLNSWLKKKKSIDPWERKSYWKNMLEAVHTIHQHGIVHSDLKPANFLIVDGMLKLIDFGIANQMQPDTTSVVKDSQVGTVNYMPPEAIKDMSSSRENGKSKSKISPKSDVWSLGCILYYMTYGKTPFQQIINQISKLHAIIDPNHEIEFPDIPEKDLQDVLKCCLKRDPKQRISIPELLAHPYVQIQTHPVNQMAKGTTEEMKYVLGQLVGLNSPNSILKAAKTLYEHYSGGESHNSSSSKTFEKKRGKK
Nature of the test: Mps-1 kinase assay (TR-FRET). The format is biochemical. The note with it: Mps1 IC50 [nM], 10 μM ATP, 1 μM peptide substrate, 60 min at 22° C. Summed up:
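Next, Eu-labelled anti-phospho(Ser/Thr) antibody and SA-XLent bind for 1 h at 22° C. Finally, energy transfer quantifies phosphorylated product.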
A general note: Time-resolved FRET reads energy transfer from a long-lived donor to a nearby acceptor.
`NS(=O)(=O)CCNc1cc(Cl)nn2c(-c3ccc(C(=O)NC4CC4)cc3)cnc12` [Example 98, 4-{6-Chloro-8-[(2-sulfamoylethyl)amino]imidazo[1,2-b]pyridazin-3-yl}-N-cyclopropylbenzamide]: the IC50 turned out to be 52.3 nM.

`Cc1cc(-c2cnc3c(NCCC(F)(F)F)cc(Oc4cncc(F)c4)nn23)ccc1C(=O)NC1CC1` [Example 464, N-cyclopropyl-4-{6-[(5-fluoropyridin-3-yl)oxy]-8-[(3,3,3-trifluoropropyl)amino]imidazo[1,2-b]pyridazin-3-yl}-2-methylbenzamide]: the IC50 amounted to 0.1 nM. In the case of `Cc1ccc(Cl)cc1Nc1cc(NCCCC(F)(F)F)c2ncc(-c3ccc(C(=O)NC4CC4)c(C)c3)n2n1` [Example 451, 4-{6-[(5-chloro-2-methylphenyl)amino]-8-[(4,4,4-trifluorobutyl)amino]imidazo[1,2-b]pyridazin-3-yl}-N-cyclopropyl-2-methylbenzamide], the IC50 came to 1.3 nM. Then `CCNC(=O)c1ccc(-c2cnc3c(NCCC(F)(F)F)cc(Oc4cc(F)ccc4C)nn23)cc1C` [Example 603, N-ethyl-4-{6-(5-fluoro-2-methylphenoxy)-8-[(3,3,3-trifluoropropyl)a-mino]imidazo[1,2-b]pyridazin-3-yl}-2-methylbenzamide], with below 1 nM; and `Cc1cc(-c2cnc3c(NCC(C)(C)O)cc(Oc4ccc(OC(C)C)cc4)nn23)ccc1C(=O)NC1CC1` [Example 256, N-cyclopropyl-4-{8-[(2-hydroxy-2-methylpropyl)amino]-6-(4-isopropoxyphenoxy)imidazo[1,2-b]pyridazin-3-yl}-2-methylbenzamide], with 0.2 nM; and `COc1cc(F)ccc1Nc1cc(NCCCC(F)(F)F)c2ncc(-c3ccc(C(=O)NC4CC4)c(C)c3)n2n1` [Example 457, N-cyclopropyl-4-{6-[(4-fluoro-2-methoxyphenyl)amino]-8-[(4,4,4-trifluorobutyl)amino]imidazo[1,2-b]pyridazin-3-yl}-2-methylbenzamide], with 5.4 nM. Then `Cc1cc(-c2cnc3c(NCCC(C)CO)cc(-c4ccccc4CO)nn23)ccc1C(=O)NC1CC1` (racemic) [Example 343, (RS)-N-cyclopropyl-4-{8-[(4-hydroxy-3-methylbutyl)amino]-6-[2-(hydroxymethyl)phenyl]imidazo [1,2-b]pyridazin-3-yl}-2-methyl-benzamide], with 4.3 nM; and `CC(C)CNc1cc(-c2cccs2)nn2c(-c3ccc(C(=O)NC4CC4)cc3)cnc12` [Example 121, N-cyclopropyl-4-{8-[(2-methylpropyl)amino]-6-(thiophen-2-yl)imidazo [1,2-b]pyridazin-3-yl} benzamide], with 1.8 nM; and `Cc1cc(-c2cnc3c(NCC(C)(C)O)cc(Sc4cccc(C(C)C)c4)nn23)ccc1C(=O)NC1CC1` [Example 273, N-cyclopropyl-4-{8-[(2-hydroxy-2-methylpropyl)amino]-6-[(3-isopropylphenyl)sulfanyl]imidazo[1,2-b]pyridazin-3-yl}-2-methylbenzamide], with 0.5 nM.

In the case of `CNC(=O)c1ccc(-c2cnc3c(NCC4CCOCC4)cc(Oc4ccc(OC)cc4)nn23)cc1C` [Example 570, 4-{6-(4-methoxyphenoxy)-8-[(tetrahydro-2H-pyran-4-ylmethyl)amino]imidazo[1,2-b]pyridazin-3-yl}-N,2-dimethylbenzamide], the IC50 is below 1 nM. In the case of `Cc1cc(-c2cnc3c(NCCC(F)(F)F)cc(Sc4ccc(F)c(F)c4)nn23)ccc1C(=O)NC1CC1` [Example 249, N-cyclopropyl-4-{6-[(3,4-difluorophenyl)sulfanyl]-8-[(3,3,3-trifluoropropyl)amino]imidazo[1,2-b]pyridazin-3-yl}-2-methylbenzamide] it was 0.2 nM. In the case of `Cc1cc(-c2cnc3c(NCC4CC(F)(F)C4)cc(Oc4cccc(F)c4)nn23)ccc1C(=O)NC1CC1` [Example 330, N-cyclopropyl-4-[8-{[(3,3-difluorocyclobutyl)methyl]amino}-6-(3-fluoro-phenoxy)imidazo[1,2-b]pyridazin-3-yl]-2-methyl-benzamide] it was 0.2 nM.
